Assay results as given in ChEMBL document CHEMBL4804282, “Quinoline-based compounds and methods of inhibiting cdk8/19” (2020).
Blank lines part the entries; values can stand above or below the compound they belong to. The source made the active and inactive calls. No cut-off for these calls is given here.

Legend:
[1] = biological target: Cyclin-dependent kinase 8 (Homo sapiens) (UniProt P49336); assay: Inhibition of CDK8 in TNF-alpha-induced HEK293 cells at 1 uM by NF-kappaB reporter assay relative to control; type: cell-based
[2] = biological target: T1, Myosin-IIIb (Homo sapiens) (UniProt Q8WXR4); assay: Inhibition of human MYO3B by DiscoverX assay
T1 sequence (whole entry): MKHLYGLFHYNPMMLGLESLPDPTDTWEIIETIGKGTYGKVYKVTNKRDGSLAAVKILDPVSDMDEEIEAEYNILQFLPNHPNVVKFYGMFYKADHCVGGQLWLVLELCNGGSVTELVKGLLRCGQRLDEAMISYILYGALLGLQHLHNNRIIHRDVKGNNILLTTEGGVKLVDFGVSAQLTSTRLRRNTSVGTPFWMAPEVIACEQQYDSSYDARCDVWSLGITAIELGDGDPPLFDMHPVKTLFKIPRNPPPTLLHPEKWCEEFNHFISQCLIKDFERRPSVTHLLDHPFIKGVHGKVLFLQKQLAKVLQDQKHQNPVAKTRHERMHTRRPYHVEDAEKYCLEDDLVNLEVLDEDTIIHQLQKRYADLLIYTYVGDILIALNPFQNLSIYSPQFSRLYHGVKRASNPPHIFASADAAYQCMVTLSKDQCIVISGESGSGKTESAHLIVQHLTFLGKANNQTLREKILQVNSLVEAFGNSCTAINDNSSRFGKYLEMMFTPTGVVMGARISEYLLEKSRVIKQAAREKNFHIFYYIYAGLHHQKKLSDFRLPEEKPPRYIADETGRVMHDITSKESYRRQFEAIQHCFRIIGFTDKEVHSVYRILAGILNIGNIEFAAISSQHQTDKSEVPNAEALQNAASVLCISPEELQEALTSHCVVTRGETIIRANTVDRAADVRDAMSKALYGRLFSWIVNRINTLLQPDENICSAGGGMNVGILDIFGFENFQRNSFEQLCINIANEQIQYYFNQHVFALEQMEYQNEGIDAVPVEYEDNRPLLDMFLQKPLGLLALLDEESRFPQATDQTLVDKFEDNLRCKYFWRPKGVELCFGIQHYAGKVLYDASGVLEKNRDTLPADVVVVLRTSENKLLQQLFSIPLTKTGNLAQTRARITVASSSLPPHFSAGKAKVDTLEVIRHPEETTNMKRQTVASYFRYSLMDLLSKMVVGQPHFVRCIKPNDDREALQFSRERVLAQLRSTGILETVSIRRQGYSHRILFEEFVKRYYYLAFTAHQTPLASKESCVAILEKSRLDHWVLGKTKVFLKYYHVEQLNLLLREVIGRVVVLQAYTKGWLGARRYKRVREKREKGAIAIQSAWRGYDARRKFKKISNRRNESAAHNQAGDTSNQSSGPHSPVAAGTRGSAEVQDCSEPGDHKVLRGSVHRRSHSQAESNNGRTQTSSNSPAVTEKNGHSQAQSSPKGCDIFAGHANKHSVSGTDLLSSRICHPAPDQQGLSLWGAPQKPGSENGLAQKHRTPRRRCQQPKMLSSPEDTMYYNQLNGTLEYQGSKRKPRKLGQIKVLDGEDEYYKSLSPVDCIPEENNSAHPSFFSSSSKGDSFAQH

[3] = Metabolic stability of compound in human hepatocytes assessed as metabolic conversion rate by LC/MS/MS analysis; type: ADME, cell-based, Hepatocyte
[4] = AUC in female FVB mouse at 27 mg/kg, ip by LC/MS/MS analysis; type: ADME, organism-based; design: dose 27 mg/kg; conditions: in vivo
[5] = Elimination rate in female FVB mouse at 27 mg/kg, ip by LC/MS/MS analysis; type: ADME, organism-based; conditions: in vivo
[6] = Half-life in female FVB mouse at 27 mg/kg, ip by LC/MS/MS analysis; type: ADME, organism-based; conditions: in vivo
[7] = Inhibition of prostate specific antigen (PSA) production in human LNCaP C4-2 cells measured after 4 days by ELISA assay; type: functional, cell-based; conditions: LNCaP C4-2, 96 h
[8] = biological target: Cyclin-dependent kinase 8 (Homo sapiens) (UniProt P49336); assay: Inhibition of human CDK8 at 2000 nM by KINOMEscan assay
[9] = biological target: Cyclin-dependent kinase 19 (Homo sapiens) (UniProt Q9BWU1); assay: Inhibition of human CDK19 at 2000 nM by KINOMEscan assay
[10] = biological target: T2, Serine/threonine-protein kinase haspin (Homo sapiens) (UniProt Q8TF76); assay: Inhibition of human HASPIN at 2000 nM by KINOMEscan assay
T2 sequence (whole entry): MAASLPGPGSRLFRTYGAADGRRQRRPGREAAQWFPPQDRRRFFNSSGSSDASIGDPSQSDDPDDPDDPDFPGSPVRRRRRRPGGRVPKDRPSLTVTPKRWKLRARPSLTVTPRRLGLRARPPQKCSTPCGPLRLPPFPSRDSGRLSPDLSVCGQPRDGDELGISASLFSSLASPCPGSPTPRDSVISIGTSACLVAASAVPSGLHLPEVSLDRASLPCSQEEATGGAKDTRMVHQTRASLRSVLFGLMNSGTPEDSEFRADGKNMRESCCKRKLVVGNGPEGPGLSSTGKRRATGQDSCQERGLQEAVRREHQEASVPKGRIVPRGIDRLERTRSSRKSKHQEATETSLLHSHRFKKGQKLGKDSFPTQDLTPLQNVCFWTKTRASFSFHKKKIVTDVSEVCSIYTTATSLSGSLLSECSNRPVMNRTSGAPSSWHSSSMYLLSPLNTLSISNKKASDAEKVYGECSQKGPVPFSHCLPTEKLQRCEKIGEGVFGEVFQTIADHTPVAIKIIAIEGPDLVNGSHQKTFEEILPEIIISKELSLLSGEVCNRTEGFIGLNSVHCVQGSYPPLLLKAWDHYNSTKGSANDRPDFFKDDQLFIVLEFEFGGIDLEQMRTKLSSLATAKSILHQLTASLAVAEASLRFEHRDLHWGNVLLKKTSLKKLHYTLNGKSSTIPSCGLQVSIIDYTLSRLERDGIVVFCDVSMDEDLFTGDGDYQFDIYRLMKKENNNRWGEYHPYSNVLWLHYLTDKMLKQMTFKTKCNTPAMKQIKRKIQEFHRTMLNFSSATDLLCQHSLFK

[11] = biological target: T3, Mitogen-activated protein kinase kinase kinase kinase 2 (Homo sapiens) (UniProt Q12851); assay: Inhibition of human MAP4K2 at 2000 nM by KINOMEscan assay
T3 sequence (whole entry): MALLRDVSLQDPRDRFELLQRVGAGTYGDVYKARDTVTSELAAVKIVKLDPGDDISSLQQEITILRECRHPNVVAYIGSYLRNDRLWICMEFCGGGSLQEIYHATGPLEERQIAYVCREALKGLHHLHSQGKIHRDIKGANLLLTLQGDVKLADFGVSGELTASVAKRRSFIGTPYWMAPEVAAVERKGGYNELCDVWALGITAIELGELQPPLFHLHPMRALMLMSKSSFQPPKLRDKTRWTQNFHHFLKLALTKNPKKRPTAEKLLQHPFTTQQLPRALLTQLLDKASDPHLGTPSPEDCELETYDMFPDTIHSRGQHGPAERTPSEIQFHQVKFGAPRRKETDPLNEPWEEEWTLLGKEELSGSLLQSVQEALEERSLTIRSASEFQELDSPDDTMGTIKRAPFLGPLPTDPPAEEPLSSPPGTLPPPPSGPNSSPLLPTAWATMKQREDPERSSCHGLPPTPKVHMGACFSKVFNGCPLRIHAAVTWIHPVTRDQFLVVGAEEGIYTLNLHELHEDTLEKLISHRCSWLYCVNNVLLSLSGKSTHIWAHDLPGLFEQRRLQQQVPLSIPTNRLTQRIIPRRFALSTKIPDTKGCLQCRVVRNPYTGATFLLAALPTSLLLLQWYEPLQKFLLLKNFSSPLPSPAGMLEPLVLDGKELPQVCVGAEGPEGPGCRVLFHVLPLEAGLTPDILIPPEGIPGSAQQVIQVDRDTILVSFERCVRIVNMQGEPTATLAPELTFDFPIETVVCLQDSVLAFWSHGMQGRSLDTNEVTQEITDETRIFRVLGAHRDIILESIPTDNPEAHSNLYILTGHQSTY

[12] = biological target: T1, Myosin-IIIb (Homo sapiens); assay: Inhibition of human MYO3B at 2000 nM by KINOMEscan assay
[13] = biological target: T4, Cyclin-dependent kinase 8/19 (Homo sapiens) (UniProt P49336+Q9BWU1); assay: Inhibition of CDK8/CDK19 in HEK293 cells assessed as reduction in JUN expression at 1 uM incubated for 2 hrs and measured after 24 hrs of compound wash-off; type: cell-based
[14] = biological target: T4, Cyclin-dependent kinase 8/19 (Homo sapiens); assay: Inhibition of CDK8/CDK19 in HEK293 cells assessed as reduction in MYC expression at 1 uM incubated for 2 hrs and measured after 24 hrs of compound wash-off; type: cell-based
[15] = Elimination rate in female FVB mouse at 19 mg/kg, ip by LC/MS/MS analysis; type: ADME, organism-based; conditions: in vivo
[16] = AUC (0-8 h) in female FVB mouse at 30 mg/kg, po; type: ADME, organism-based; design: time < 8 hr, route oral, dose 30 mg/kg; conditions: in vivo
[17] = Half-life in female FVB mice at 30 mg/kg, po; type: ADME, organism-based; conditions: mouse, in vivo
LNCaP C4-2 = assay: Antitumor activity against human C4-2 cells xenografted in male NcrNU mouse assessed as decrease in PSA mRNA levels in tumor at 40 mg/kg, po administered for 4 days; type: functional, organism-based
[18] = Drug uptake in tumor of male NcrNU mouse xenografted with human C4-2 cells at 40 mg/kg, po administered for 4 days; type: ADME, organism-based, Neoplasm, LNCaP C4-2; conditions: in vivo, 96 h
4T1 = assay: Antitumour activity against mouse 4T1 cells xenografted in female Balb/c mouse assessed as increase in animal survival at 40 mg/kg, po administered twice per day; type: functional, organism-based
[19] = Ratio of tumor to blood biodistribution in male NcrNU mouse xenografted with 22Rv1 human xenografts at 20 mg/kg, ip; type: ADME, organism-based, Serum/Tumor

Chain of Cyclin-dependent kinase 8 (Homo sapiens) (P49336 whole entry): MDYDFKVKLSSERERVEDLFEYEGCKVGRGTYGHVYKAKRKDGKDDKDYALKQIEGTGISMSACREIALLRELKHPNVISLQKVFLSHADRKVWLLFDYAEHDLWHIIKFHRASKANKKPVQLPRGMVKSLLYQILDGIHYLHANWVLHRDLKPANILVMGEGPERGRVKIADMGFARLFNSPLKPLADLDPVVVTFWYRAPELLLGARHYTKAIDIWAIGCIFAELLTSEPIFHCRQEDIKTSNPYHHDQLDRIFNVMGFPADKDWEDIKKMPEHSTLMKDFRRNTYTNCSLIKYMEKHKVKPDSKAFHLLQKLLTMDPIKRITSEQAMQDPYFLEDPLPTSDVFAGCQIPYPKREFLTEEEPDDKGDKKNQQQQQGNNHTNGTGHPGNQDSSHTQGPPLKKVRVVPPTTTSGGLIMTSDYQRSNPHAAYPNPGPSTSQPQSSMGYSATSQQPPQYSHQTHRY
T4 sequence (P49336 whole entry, looked up): as the sequence (P49336 whole entry) above
T4 sequence (Q9BWU1 whole entry, looked up): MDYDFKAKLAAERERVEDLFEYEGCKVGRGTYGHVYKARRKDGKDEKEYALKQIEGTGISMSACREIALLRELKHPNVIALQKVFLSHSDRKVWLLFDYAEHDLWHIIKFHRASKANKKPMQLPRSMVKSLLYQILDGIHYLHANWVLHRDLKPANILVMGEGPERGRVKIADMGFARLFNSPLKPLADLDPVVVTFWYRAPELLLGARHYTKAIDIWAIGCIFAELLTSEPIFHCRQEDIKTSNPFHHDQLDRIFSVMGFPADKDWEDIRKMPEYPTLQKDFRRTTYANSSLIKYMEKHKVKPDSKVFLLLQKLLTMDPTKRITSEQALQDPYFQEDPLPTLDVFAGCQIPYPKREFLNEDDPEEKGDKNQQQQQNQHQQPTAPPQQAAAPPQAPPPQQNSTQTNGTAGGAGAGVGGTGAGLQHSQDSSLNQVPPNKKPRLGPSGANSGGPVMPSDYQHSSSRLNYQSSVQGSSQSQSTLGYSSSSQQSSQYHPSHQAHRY
Chain of Cyclin-dependent kinase 19 (Homo sapiens) (Q9BWU1 whole entry): as the sequence (Q9BWU1 whole entry, looked up) above

- inhibition [1]: 10%
SMILES: Brc1ccc2nccc(NCCc3ccccc3)c2c1

- inhibition [1]: 8%
SMILES: Clc1ccc2nccc(NCCc3ccccc3)c2c1

- inhibition [2]: inactive
- Stabilty [3]: Unstable
- AUC [4]: 1760 ng·h/mL
- k el [5]: 0.00111 s⁻¹
- half-life [6]: 0.17 h
- IC50 [7]: 222 nM
SMILES: CN1CCN(C(=O)c2ccc3cc(CCNc4ncnc5ccc(C#N)cc45)ccc3c2)CC1 [SENEXIN B]

- inhibition [8]: > 65%
- inhibition [9]: > 65%
- inhibition [10]: > 65%
- inhibition [11]: > 65%
- inhibition [12]: > 65%
- inhibition [13]: Active
- inhibition [14]: Active
- Stabilty [3]: Stable
- k el [15]: 0.000261 s⁻¹
- IC50 [7]: 82 nM
- AUC(0-t) at 8 h [16]: 817 ng·h/mL
- half-life [17]: 3.8 h
- Drug uptake [18]: Active
- Kp [19]: 5
SMILES: CN1CCN(C(=O)c2ccc3cc(CCNc4ccnc5ccc(C#N)cc45)ccc3c2)CC1
- Activity (LNCaP C4-2): Active
- Activity (4T1): Active
